According to ChEMBL document CHEMBL4507317, “Data for DCP probe BAY-899” (2021):

Columns and labels:
[1] = target: Kappa-type opioid receptor (Homo sapiens, UniProt P41145); test: GPCRScan assay: inhibition of KOR; design: radioligand conc. used [nm] 0.6 – 1.2, parental cells stable HEK
[2] = target: Atypical kinase COQ8A, mitochondrial (Homo sapiens) (UniProt Q8NI60); settings: Compound concentration 1000.0 nM
[3] = target: RAC-alpha serine/threonine-protein kinase (Homo sapiens) (UniProt P31749); settings: Compound concentration 1000.0 nM
[4] = target: Bone morphogenetic protein receptor type-1A (Homo sapiens) (UniProt P36894); settings: Compound concentration 1000.0 nM
[5] = target: Calcium/calmodulin-dependent protein kinase type 1G (Homo sapiens) (UniProt Q96NX5); settings: Compound concentration 1000.0 nM
[6] = target: Calcium/calmodulin-dependent protein kinase type IV (Homo sapiens) (UniProt Q16566); settings: Compound concentration 1000.0 nM
Chain of Calcium/calmodulin-dependent protein kinase type IV (Homo sapiens) (Q16566 whole entry): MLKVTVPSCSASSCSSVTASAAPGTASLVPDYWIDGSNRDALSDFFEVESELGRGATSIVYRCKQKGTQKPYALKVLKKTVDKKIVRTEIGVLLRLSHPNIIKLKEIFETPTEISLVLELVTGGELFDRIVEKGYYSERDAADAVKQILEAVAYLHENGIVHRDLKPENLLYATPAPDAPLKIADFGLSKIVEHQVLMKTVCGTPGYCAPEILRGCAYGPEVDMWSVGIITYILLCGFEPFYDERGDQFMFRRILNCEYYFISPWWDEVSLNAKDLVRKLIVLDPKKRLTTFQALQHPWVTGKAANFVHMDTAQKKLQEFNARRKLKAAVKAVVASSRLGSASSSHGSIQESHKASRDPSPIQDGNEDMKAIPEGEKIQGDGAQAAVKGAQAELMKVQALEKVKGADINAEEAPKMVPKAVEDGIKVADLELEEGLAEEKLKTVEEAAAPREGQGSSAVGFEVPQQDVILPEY

[7] = target: Cyclin-dependent kinase 11B (Homo sapiens) (UniProt P21127); settings: Compound concentration 1000.0 nM
Chain of Cyclin-dependent kinase 11B (Homo sapiens) (P21127 whole entry): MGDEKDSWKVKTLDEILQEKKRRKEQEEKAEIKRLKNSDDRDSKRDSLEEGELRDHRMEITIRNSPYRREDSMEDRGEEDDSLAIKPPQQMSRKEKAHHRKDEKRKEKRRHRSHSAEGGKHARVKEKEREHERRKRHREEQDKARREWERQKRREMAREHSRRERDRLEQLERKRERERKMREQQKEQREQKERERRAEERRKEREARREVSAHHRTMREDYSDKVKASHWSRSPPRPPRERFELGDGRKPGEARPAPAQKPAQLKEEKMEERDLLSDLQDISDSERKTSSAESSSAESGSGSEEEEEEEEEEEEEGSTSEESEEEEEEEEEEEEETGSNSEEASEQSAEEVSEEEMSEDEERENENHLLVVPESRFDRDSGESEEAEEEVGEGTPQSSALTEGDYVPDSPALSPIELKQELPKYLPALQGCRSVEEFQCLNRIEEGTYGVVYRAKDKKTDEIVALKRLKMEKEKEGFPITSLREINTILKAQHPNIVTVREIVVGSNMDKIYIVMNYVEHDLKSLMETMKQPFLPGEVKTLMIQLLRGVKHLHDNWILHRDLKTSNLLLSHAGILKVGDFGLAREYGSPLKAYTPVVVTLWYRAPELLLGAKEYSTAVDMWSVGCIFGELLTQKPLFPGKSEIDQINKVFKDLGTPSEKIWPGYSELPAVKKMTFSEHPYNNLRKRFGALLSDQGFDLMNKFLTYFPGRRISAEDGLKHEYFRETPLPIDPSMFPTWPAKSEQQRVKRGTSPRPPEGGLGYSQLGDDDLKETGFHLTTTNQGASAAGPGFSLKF

[8] = target: Cyclin-dependent kinase 3 (Homo sapiens) (UniProt Q00526); settings: Compound concentration 1000.0 nM
Chain of Cyclin-dependent kinase 3 (Homo sapiens) (Q00526 whole entry, looked up): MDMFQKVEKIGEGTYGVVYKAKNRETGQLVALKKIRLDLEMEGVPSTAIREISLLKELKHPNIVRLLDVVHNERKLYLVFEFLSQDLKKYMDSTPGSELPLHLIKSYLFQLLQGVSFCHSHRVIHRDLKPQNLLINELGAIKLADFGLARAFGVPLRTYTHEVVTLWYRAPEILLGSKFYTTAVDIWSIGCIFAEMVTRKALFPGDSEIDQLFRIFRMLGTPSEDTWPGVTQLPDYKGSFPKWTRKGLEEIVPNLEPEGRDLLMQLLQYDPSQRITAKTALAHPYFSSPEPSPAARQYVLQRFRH

[9] = target: Cyclin-dependent kinase 4 (Homo sapiens) (UniProt P11802); settings: Compound concentration 1000.0 nM
[10] = target: Cyclin-dependent kinase 5 (Homo sapiens) (UniProt Q00535); settings: Compound concentration 1000.0 nM
[11] = target: Dual specificity protein kinase CLK3 (Homo sapiens) (UniProt P49761); settings: Compound concentration 1000.0 nM
[12] = target: Dual specificity protein kinase CLK4 (Homo sapiens) (UniProt Q9HAZ1); settings: Compound concentration 1000.0 nM
Chain of Dual specificity protein kinase CLK4 (Homo sapiens) (Q9HAZ1 whole entry, looked up): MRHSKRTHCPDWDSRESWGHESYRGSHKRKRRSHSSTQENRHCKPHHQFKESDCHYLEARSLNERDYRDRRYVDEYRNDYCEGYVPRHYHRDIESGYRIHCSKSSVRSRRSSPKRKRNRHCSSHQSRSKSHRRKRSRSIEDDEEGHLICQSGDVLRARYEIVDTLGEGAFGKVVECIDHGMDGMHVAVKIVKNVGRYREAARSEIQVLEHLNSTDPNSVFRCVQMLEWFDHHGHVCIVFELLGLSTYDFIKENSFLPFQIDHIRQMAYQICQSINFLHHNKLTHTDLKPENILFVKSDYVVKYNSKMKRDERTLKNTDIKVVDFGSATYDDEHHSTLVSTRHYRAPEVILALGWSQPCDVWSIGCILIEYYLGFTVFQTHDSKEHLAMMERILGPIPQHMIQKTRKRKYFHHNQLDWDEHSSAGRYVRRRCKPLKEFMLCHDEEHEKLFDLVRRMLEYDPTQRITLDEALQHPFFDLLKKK

[13] = target: Macrophage colony-stimulating factor 1 receptor (Homo sapiens) (UniProt P07333); settings: Compound concentration 1000.0 nM
Chain of Macrophage colony-stimulating factor 1 receptor (Homo sapiens) (P07333 whole entry, canonical isoform): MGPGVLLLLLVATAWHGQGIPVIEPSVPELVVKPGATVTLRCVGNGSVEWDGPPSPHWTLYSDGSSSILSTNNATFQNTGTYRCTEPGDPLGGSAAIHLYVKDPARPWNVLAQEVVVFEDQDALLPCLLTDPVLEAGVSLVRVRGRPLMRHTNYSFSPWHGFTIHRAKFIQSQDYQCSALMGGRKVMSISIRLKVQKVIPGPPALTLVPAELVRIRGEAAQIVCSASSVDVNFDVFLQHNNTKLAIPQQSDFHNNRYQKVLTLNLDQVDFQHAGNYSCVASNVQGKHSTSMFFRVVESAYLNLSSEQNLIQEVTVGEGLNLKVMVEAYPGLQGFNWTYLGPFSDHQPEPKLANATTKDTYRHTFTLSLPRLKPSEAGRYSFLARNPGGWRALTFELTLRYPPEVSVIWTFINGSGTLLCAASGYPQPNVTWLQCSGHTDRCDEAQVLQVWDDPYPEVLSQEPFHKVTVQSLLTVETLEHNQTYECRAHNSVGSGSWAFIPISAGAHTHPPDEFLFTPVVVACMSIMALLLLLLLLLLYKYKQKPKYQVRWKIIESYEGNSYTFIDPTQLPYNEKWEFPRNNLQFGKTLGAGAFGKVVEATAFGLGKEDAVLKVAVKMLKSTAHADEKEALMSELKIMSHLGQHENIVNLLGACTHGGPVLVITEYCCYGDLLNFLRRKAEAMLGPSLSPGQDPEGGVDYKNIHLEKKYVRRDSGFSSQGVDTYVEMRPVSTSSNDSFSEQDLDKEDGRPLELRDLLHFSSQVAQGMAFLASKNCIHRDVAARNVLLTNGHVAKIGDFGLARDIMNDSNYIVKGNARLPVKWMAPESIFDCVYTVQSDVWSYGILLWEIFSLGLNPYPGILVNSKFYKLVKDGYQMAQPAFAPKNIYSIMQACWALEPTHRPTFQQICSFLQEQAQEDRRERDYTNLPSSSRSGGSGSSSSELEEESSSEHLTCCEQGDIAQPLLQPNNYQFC

[14] = target: Casein kinase I isoform epsilon (Homo sapiens) (UniProt P49674); settings: Compound concentration 1000.0 nM
[15] = target: Casein kinase I isoform gamma-1 (Homo sapiens) (UniProt Q9HCP0); settings: Compound concentration 1000.0 nM
[16] = target: Casein kinase II subunit alpha' (Homo sapiens) (UniProt P19784); settings: Compound concentration 1000.0 nM
[17] = target: Serine/threonine-protein kinase DCLK3 (Homo sapiens) (UniProt Q9C098); settings: Compound concentration 1000.0 nM
[18] = target: Dual specificity tyrosine-phosphorylation-regulated kinase 1B (Homo sapiens) (UniProt Q9Y463); settings: Compound concentration 1000.0 nM
[19] = test system: Epidermal growth factor receptor (Homo sapiens), P00533 [T790M]; settings: Compound concentration 1000.0 nM
[20] = target: Ephrin type-A receptor 6 (Homo sapiens) (UniProt Q9UF33); settings: Compound concentration 1000.0 nM
[21] = target: Receptor tyrosine-protein kinase erbB-2 (Homo sapiens) (UniProt P04626); settings: Compound concentration 1000.0 nM
[22] = target: Mitogen-activated protein kinase 15 (Homo sapiens) (UniProt Q8TD08); settings: Compound concentration 1000.0 nM
[23] = target: Glycogen synthase kinase-3 beta (Homo sapiens) (UniProt P49841); settings: Compound concentration 1000.0 nM
[24] = target: Homeodomain-interacting protein kinase 3 (Homo sapiens) (UniProt Q9H422); settings: Compound concentration 1000.0 nM
[25] = target: Insulin-like growth factor 1 receptor (Homo sapiens) (UniProt P08069); settings: Compound concentration 1000.0 nM
[26] = target: Tyrosine-protein kinase ITK/TSK (Homo sapiens) (UniProt Q08881); settings: Compound concentration 1000.0 nM
Chain of Tyrosine-protein kinase ITK/TSK (Homo sapiens) (Q08881 whole entry): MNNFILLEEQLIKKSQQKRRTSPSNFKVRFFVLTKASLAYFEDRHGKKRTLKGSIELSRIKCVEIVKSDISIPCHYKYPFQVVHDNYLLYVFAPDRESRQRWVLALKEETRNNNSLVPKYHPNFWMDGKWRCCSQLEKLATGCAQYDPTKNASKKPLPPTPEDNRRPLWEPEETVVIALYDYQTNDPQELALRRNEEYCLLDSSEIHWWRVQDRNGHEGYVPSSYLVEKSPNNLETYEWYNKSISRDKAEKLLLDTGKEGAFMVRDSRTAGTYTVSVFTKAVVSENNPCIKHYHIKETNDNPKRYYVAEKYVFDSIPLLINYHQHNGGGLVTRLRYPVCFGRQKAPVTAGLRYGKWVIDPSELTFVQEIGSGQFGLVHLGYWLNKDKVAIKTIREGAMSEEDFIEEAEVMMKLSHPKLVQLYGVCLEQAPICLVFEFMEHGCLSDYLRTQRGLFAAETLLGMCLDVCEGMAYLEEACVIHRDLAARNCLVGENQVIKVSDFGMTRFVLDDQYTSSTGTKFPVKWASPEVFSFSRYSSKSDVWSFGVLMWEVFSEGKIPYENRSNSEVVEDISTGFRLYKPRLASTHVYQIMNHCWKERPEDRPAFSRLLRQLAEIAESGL

[27] = target: Microtubule-associated serine/threonine-protein kinase 1 (Homo sapiens) (UniProt Q9Y2H9); settings: Compound concentration 1000.0 nM
[28] = target: Dual specificity mitogen-activated protein kinase kinase 1 (Homo sapiens) (UniProt Q02750); settings: Compound concentration 1000.0 nM
[29] = target: Dual specificity mitogen-activated protein kinase kinase 6 (Homo sapiens) (UniProt P52564); settings: Compound concentration 1000.0 nM
[30] = target: Misshapen-like kinase 1 (Homo sapiens) (UniProt Q8N4C8); settings: Compound concentration 1000.0 nM
[31] = target: Macrophage-stimulating protein receptor (Homo sapiens) (UniProt Q04912); settings: Compound concentration 1000.0 nM
[32] = target: Serine/threonine-protein kinase Nek1 (Homo sapiens) (UniProt Q96PY6); settings: Compound concentration 1000.0 nM
[33] = target: Mitogen-activated protein kinase 12 (Homo sapiens) (UniProt P53778); settings: Compound concentration 1000.0 nM
[34] = target: Serine/threonine-protein kinase pim-3 (Homo sapiens) (UniProt Q86V86); settings: Compound concentration 1000.0 nM
[35] = target: Serine/threonine-protein kinase D2 (Homo sapiens) (UniProt Q9BZL6); settings: Compound concentration 1000.0 nM
[36] = target: RAF proto-oncogene serine/threonine-protein kinase (Homo sapiens) (UniProt P04049); settings: Compound concentration 1000.0 nM
[37] = test system: Proto-oncogene tyrosine-protein kinase receptor Ret (Homo sapiens), P07949 [M918T]; settings: Compound concentration 1000.0 nM
[38] = target: Serine/threonine-protein kinase RIO2 (Homo sapiens) (UniProt Q9BVS4); settings: Compound concentration 1000.0 nM
Chain of Serine/threonine-protein kinase RIO2 (Homo sapiens) (Q9BVS4 whole entry, looked up): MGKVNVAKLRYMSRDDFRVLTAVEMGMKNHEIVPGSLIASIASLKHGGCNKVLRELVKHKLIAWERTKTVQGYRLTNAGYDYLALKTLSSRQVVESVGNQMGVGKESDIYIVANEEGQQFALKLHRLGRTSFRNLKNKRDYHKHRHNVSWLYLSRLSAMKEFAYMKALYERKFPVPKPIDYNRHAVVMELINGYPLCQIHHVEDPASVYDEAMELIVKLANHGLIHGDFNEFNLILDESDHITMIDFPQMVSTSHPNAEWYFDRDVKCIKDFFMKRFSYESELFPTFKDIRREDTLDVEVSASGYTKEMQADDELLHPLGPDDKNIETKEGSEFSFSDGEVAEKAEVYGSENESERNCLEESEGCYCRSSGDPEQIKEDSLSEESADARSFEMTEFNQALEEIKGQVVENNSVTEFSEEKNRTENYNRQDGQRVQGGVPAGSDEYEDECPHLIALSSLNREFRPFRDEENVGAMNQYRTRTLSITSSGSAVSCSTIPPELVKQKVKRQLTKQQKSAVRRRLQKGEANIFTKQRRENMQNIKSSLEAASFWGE

[39] = target: Ribosomal protein S6 kinase alpha-3 (Homo sapiens) (UniProt P51812); settings: Compound concentration 1000.0 nM
[40] = target: Serine/threonine-protein kinase SIK1 (Homo sapiens) (UniProt P57059); settings: Compound concentration 1000.0 nM
[41] = target: Tyrosine-protein kinase receptor Tie-1 (Homo sapiens) (UniProt P35590); settings: Compound concentration 1000.0 nM
[42] = target: Testis-specific serine/threonine-protein kinase 1 (Homo sapiens) (UniProt Q9BXA7); settings: Compound concentration 1000.0 nM
[43] = target: Serine/threonine-protein kinase WNK2 (Homo sapiens) (UniProt Q9Y3S1); settings: Compound concentration 1000.0 nM
[44] = target: 5-hydroxytryptamine receptor 2A (Homo sapiens, UniProt P28223); settings: Compound concentration 10.0 uM
[45] = target: Sodium-dependent serotonin transporter (Homo sapiens) (UniProt P31645); settings: Compound concentration 10.0 uM
[46] = target: Beta-1 adrenergic receptor (Homo sapiens) (UniProt P08588); settings: Compound concentration 10.0 uM
Chain of Beta-1 adrenergic receptor (Homo sapiens) (P08588 whole entry, looked up): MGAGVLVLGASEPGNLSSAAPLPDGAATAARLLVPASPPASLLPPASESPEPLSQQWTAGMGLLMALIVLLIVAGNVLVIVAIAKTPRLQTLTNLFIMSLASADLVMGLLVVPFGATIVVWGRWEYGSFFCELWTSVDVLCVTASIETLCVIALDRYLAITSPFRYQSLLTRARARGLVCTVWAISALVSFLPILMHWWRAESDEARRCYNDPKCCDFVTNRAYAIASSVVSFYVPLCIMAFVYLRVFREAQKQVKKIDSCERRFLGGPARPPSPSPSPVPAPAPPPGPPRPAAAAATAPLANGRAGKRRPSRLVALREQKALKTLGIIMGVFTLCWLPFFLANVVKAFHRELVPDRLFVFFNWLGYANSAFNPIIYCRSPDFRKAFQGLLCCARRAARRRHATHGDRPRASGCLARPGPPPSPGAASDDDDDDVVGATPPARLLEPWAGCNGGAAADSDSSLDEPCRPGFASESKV

SMILES: O=C(Nc1ccc(Oc2ccc(F)cc2)cc1)N1CCc2ncccc2[C@H]1c1ccc(F)cc1 [BAY-897]
- Ki [1]: 3.13 µM
- residual activity [2]: 100%
- residual activity [3]: 95%
- residual activity [4]: 100%
- residual activity [5]: 100%
- residual activity [6]: 86%
- residual activity [7]: 89%
- residual activity [8]: 93%
- residual activity [9]: 94%
- residual activity [10]: 100%
- residual activity [11]: 82%
- residual activity [12]: 100%
- residual activity [13]: 90%
- residual activity [14]: 85%
- residual activity [15]: 90%
- residual activity [16]: 100%
- residual activity [17]: 93%
- residual activity [18]: 88%
- residual activity [19]: 87%
- residual activity [20]: 100%
- residual activity [21]: 100%
- residual activity [22]: 94%
- residual activity [23]: 100%
- residual activity [24]: 92%
- residual activity [25]: 100%
- residual activity [26]: 96%
- residual activity [27]: 79%
- residual activity [28]: 98%
- residual activity [29]: 100%
- residual activity [30]: 99%
- residual activity [31]: 98%
- residual activity [32]: 100%
- residual activity [33]: 94%
- residual activity [34]: 79%
- residual activity [35]: 100%
- residual activity [36]: 100%
- residual activity [37]: 100%
- residual activity [38]: 94%
- residual activity [39]: 84%
- residual activity [40]: 99%
- residual activity [41]: 85%
- residual activity [42]: 87%
- residual activity [43]: 88%
- inhibition [44]: 54.5%
- inhibition [45]: 21.1%
- inhibition [46]: -7.28%

SMILES: O=C(Nc1cnc(Oc2ccc(F)cc2)nc1)N1CCc2ncccc2[C@@H]1c1ccc(F)cc1 [BAY-899]
- Ki [1]: 7.63 µM
- residual activity [2]: 95%
- residual activity [3]: 100%
- residual activity [4]: 100%
- residual activity [5]: 97%
- residual activity [6]: 97%
- residual activity [7]: 94%
- residual activity [8]: 89%
- residual activity [9]: 100%
- residual activity [10]: 100%
- residual activity [11]: 88%
- residual activity [12]: 100%
- residual activity [13]: 78%
- residual activity [14]: 66%
- residual activity [15]: 99%
- residual activity [16]: 100%
- residual activity [17]: 96%
- residual activity [18]: 78%
- residual activity [19]: 91%
- residual activity [20]: 100%
- residual activity [21]: 80%
- residual activity [22]: 93%
- residual activity [23]: 100%
- residual activity [24]: 90%
- residual activity [25]: 100%
- residual activity [26]: 90%
- residual activity [27]: 96%
- residual activity [28]: 93%
- residual activity [29]: 77%
- residual activity [30]: 100%
- residual activity [31]: 100%
- residual activity [32]: 84%
- residual activity [33]: 96%
- residual activity [34]: 82%
- residual activity [35]: 85%
- residual activity [36]: 100%
- residual activity [37]: 95%
- residual activity [38]: 96%
- residual activity [39]: 97%
- residual activity [40]: 88%
- residual activity [41]: 88%
- residual activity [42]: 100%
- residual activity [43]: 79%
- inhibition [44]: 8.72%
- inhibition [45]: 25.5%
- inhibition [46]: 11.3%
